Measured values taken from patent US9657110B2, “Polypeptides and use thereof” (ASTON UNIVERSITY, priority 2011, dated 2017).

Assays:
HOB cells = assay: Cell adhesion assay (attachment and spreading) on FN or TG-FN matrix with RGD or RAD peptide; format: cell-based, human; conditions: for effect on attachment and spreading of HOB cells on TG-FN in the presence of the RGD peptide: TG-FN matrix, peptide 100-300 μg/ml
Method: The cell adhesion assay was carried out as previously described (Wang et al., 2010). Briefly, 96-well plastic tissue culture plates were coated with 5 μg/ml FN in 50 mM Tris-HCl, pH 7.4 at 4° C. overnight, after washing three times with 100 μl of 50 mM Tris-HCl, pH7.4, gplTG (20 μg/ml) in 2 mM EDTA in PBS, pH 7.4 was added to the wells for 1 h at 37° C. and the wells were washed three times with 50 mM Tris-HCl, pH7.4. Serum-starved (for 16 h) HOB cells with different treatments as introduced below in serum-free medium were detached by trypsinization and then treated with trypsin inhibitor. Cells were washed three times with serum free medium and seeded onto either FN or TG-FN matrix for 20-40 min. Peptides P1 or scrambled P1 (P1s), were added at concentrations between 100 μg/ml and 300 μg/ml. […] Attached cells were washed once with PBS, pH 7.4 and then fixed with 3.7% paraformaldehyde, further permeabilised with 0.1% (v/v) Triton® X-100 detergent in PBS, and co-stained with May-Grunwald and Giemsa stains as described previously (Jones et al., 1997). Images of stained cells from non-overlapping fields of view were photographed at 20× magnification and analyzed using the imaging analysis program Scion Image (National Institute of Health). Cell attachment and spreading were quantified, and the number of cells per image was assessed as described previously (Telci et al., 2008). Cell attachment on FN without peptide was considered as the control value for all the experiments unless stated otherwise. The mean number of attached cells form three wells was calculated and that of the control was considered as 100%. The mean number of attached cells (cell attachment) for each sample was then expressed as the percentage of cell attachment on FN. The mean percentage of attached cells that are spread (cell spreading) for each sample was determined separately, and the mean percentage of spread cells on FN control was expressed as 100%. The mean percentage of spread cells for each sample was then normalised against that of FN control Cell attachment on FN without the RGD peptide was considered as the control value for most of the experiments unless stated otherwise The mean number of attached cells from three wells was calculated and that of the control was considered as 100%. The mean number of attached cells (cell attachment) for each sample was then expressed as the percentage of cell attachment on FN. The mean percentage of attached cells that are spread (cell spreading) for each sample was determined separately, and the mean percentage of spread cells on the FN control was expressed as 100%. The mean percentage of spread cells for each sample was then normalised against that of FN control Cell pre-treatments included: PKCα inhibitor Go6976 (5 μM) or GK21 peptide (8 μM) for 1 h in serum-free medium prior to cell detachment; heparinase (15 mU/ml) or chondroitinase (15 mU/ml) to cells in suspension in serum free medium for 1 h. For the detection of the signalling molecules via Western blotting, the cell adhesion assay was performed in 60 mm Petri dishes and cells were collected into cell lysis buffer (Santa Cruz, UK) as described previously and pre-cleared by centrifugation at 300×g for 10 min. Western blotting was performed with specific anti-p-397 FAK or p-ERK1/2 antibodies. Membranes were stripped (Telci et al., 2008) and total FAK and ERK1/2 detected using anti-FAK and anti-ERK1/2 antibodies as listed in Table 2, while α-tubulin was used as an equal loading standard (Wang et al., 2011).
Cell adhesion and spreading assays were performed as described above in Example 1 method ‘Cell adhesion assay’

p-ERK1/2 = assay: Western blotting of p-ERK1/2 after cell adhesion assay; format: cell-based, human; conditions: HOB on FN, RGD, peptide 100 μg/ml
Method: (§1) Cell lysates containing 50 μg of protein were dissolved in 2× Laemmli buffer (Sigma-Aldrich Ltd, Dorset, UK) and separated by SDS-PAGE. Western blotting was performed using specific primary antibodies as described above. Primary antibodies were detected using the appropriate secondary antibody conjugated to horse radish peroxidase. Detection was by chemiluminescence (Amersham ECL™ Western Blotting System, GE Healthcare, UK).
(§2) The cell adhesion assay was carried out as previously described (Wang et al., 2010). […] Images of stained cells from non-overlapping fields of view were photographed at 20× magnification and analyzed using the imaging analysis program Scion Image (National Institute of Health). Cell attachment and spreading were quantified, and the number of cells per image was assessed as described previously (Telci et al., 2008). […] The mean number of attached cells form three wells was calculated and that of the control was considered as 100%. The mean number of attached cells (cell attachment) for each sample was then expressed as the percentage of cell attachment on FN. The mean percentage of attached cells that are spread (cell spreading) for each sample was determined separately, and the mean percentage of spread cells on FN control was expressed as 100%. […]

p-397 FAK = assay: Western blotting of p-397 FAK after cell adhesion assay; format: cell-based, human; conditions: HOB on FN, RGD, peptide 100 μg/ml
Method: as §1, §2

[1] = tested on: human recombinant TG2 binding to FN and its 45 kDa and 70 kDa fragments; assay: Inhibition of purified TG2 binding to FN by TG2-derived peptides (ELISA); conditions: peptide 10 μM-1 mM, effect at higher concentrations
Method: 96-well Microtitre 96-well plates were coated overnight with either full length FN (5 μg/ml), its 45 kDa (54 μg/ml) or 70 kDa (45 μg/ml) fragments, in 50 mM Tris-HCl, pH 7.4 as previously described (Verderio et al., 2003b). Wells were blocked with 3% BSA (w/v) in TBS pH 7.6. After three washes with PBS pH7.4, competitive peptides diluted in PBS, 2 mM EDTA, pH 7.4 were added to the wells at concentrations from 10 μM-1 mM and incubated for 1 h at room temperature. Wells were washed three times with PBS pH7.4 and purified human recombinant TG2 was added at a final concentration of 2 μg/ml in the presence of the different concentrations of P2 or P2s peptides and incubated for 1 h at room temperature. After three washes with PBS pH7.4 bound TG2 was measured via ELISA as introduced above. […] The treated TG2 was then detected by the ELISA assay as described above.

[2] = HOB cells on FN, RGD peptide, tested 0.01-200 μg/ml

human recombinant TG2 binding to FN and its 45 kDa and 70 kDa fragments, sequence (P02751 291-608 limits assumed): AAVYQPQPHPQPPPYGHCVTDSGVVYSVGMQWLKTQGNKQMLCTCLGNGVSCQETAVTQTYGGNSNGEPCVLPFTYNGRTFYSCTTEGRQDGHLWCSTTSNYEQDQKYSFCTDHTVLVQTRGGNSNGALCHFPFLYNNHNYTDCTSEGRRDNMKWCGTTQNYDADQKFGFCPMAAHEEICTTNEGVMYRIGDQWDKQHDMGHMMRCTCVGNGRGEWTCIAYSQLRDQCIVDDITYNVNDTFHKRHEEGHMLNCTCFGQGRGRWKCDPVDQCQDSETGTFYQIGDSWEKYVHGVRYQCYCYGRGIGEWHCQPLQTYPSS

Sequence	effect on binding of cells to FN alone (HOB cells; FN matrix, 100-300 μg/ml, compared to P1s)	concentration at which compensation of RGD-induced loss of cell adhesion started (HOB cells; [2]) [µg/mL]	concentration of maximum compensation of RGD-induced loss of cell adhesion (HOB cells; [2]) [µg/mL]	compensatory effect on RGD-induced loss of cell adhesion after heparinase pre-treatment (HOB cells; HOB cells treated with heparinase 15 mU/ml (not chondroitinase), FN)	compensatory effect on RGD-induced loss of cell adhesion after syndecan-4 siRNA (HOB cells; HOB cells, syndecan-4 siRNA (around 50% reduction in protein expression))	effect on attachment and spreading of HOB cells on TG-FN in the presence of the RGD peptide (HOB cells)	phosphorylation of p-ERK1/2 (p-ERK1/2)	phosphorylation of p-FAK397 (p-397 FAK)	inhibition of wild type TG2 binding to FN and its 45 and 70 kDa fragments [1]
NPKFLKNAGRDCSRRSS (listed as Homo sapiens) [P1]	small but significant enhancement of adhesion	5 to 10	50 to 100	abolished	comparable reduction in the compensatory effect	small, but not significant dose-dependent negative effect	paralleled by the phosphorylation of p-FAK397 and p-ERK1/2	paralleled by the phosphorylation of p-FAK397	
EECRLAEELLEDVL (Scrambed Control Peptide) [P2s, scrambled P2 peptide, reference compound]									No effect
AEELVLERCDLELE (listed as Homo sapiens) [P2, peptide corresponding to the N-terminal end of TG2]									moderate but significant inhibition
FNRADLKPRCGSSNKSR (Scrambled Control Peptide) [P1s, scrambled control peptide for P1, reference compound]						almost no effect	not found	not found	
